Assay results published in patent publication US5202242A, “A83543 compounds and processes for production thereof” (DowElanco, priority 1991, dated 1993).
≈ marks a conversion by molar mass, not a printed value. Where two headings read alike, the source gives them in different places.

What was measured:
Southern Corn Rootworm = test: Mite/insect screen: Southern Corn Rootworm (SCRW); type: in vivo, Diabrotica undecimpunctata howardi; details: 264 h, 11 day
Protocol: (§1) The formula 1A compounds were tested for miticidal and insecticidal activity in the following mite/insect screen. Each test compound was formulated by dissolving the compound in an acetone-alcohol (1:1) mixture containing 23 g of TOXIMUL R (sulfonate/nonionic emulsifier blend) and 13 g of TOXIMUL S (sulfonate/nonionic emulsifier blend) per liter. These mixtures were then diluted with water to give the indicated concentrations.
(§2) Two-spotted spider mites and cotton aphids were introduced on squash cotyledons and allowed to establish on both leaf surfaces. The leaves were then sprayed with 5 ml of test solutions using a DeVilbiss atomizing sprayer at 10 psi. Both surfaces of the leaves were covered until run off and then allowed to dry for one hour. After standard exposure periods percent mortality was evaluated. Additional insects were evaluated using similar formulations and evaluation procedures.

Beet Armyworm = test: Mite/insect screen: Beet Armyworm (BAW); type: in vivo, Spodoptera exiqua; details: Spodoptera exigua, 144 h, 6 day
Protocol: as §1, §2

Adult Stablefly = test: In vitro activity against adult stable fly; type: in vivo; details: Stomoxys calcitrans
Text: (§3) The formula 1A compounds are also active against members of the insect order Diptera. Tables VIII and IX summarize the in vitro studies of the formula 1A compounds against blowfly larvae and adult stable fly.

Rootknot Nematode = test: Mite/insect screen: Rootknot Nematode (NEM); type: in vivo, Meliiodyne spp.; details: 264 h, 11 day
Protocol: as §1, §2

German Cockroach = test: Mite/insect screen: German Cockroach (GECR); type: in vivo; details: Blattella germanica
Protocol: as §1, §2

Two-spotted Spider Mite = test: Mite/insect screen: Two-spotted Spider Mite (TSSM); type: in vivo; details: Tetranychus urticae, 4-5 day
Protocol: as §1, §2

Cotton Aphid = test: Mite/insect screen: Cotton Aphid (CA); type: in vivo, Aphis gossypii Glover; details: Aphis gossypii, 4-5 day
Protocol: as §1, §2

Tobacco Budworm = test: Mite/insect screen: Tobacco Budworm (TBW); type: in vivo; details: Heliothis virescens, 144 h, 6 day
Protocol: as §1, §2

Blowfly Larvae = test: In vitro activity against blowfly larvae; type: in vivo; details: 5 ppm
Text: as §3

Neonate Tobacco Budworm = test: LD50 against neonate tobacco budworm (petri dish assay); type: in vivo; details: Heliothis virescens; neonate larvae; mortality evaluated at 24 and 48 hours; mean of two tests
Protocol: The formula 1A compounds were evaluated in the following assay to determine the LD50 against neonate tobacco budworm (Heliothis virescens). A petri dish (100 mm×20 mm) is inverted and the lid lined with a #1 qualitative filter paper. Ten neonate larvae are placed in each dish and a 1 ml test solution is pipetted onto the insects. The petri dish bottom is then placed on the lid to contain the larvae. At 1 hr. after treatment, a small piece of Heliothis diet (modified shurry, Southland Products, Lake Village, AR) is added to each dish. The mortality is evaluated at 24 and 48 hours. Each test is run in triplicate.

Aster Leafhopper = test: Mite/insect screen: Aster Leafhopper (ALH); type: in vivo; details: Macrosteles fascifrons, 24 hr
Protocol: as §1, §2

[1] = 24 hr, read-out: % mortality 24 hr
[2] = 48 hr, read-out: % mortality 48 hr

Compound | inhibition at 200 ppm (Southern Corn Rootworm) [%] | inhibition at 400 ppm (Southern Corn Rootworm) [%] | inhibition at 200 ppm (Beet Armyworm) [%] | inhibition at 400 ppm (Beet Armyworm) [%] | mortality at 5 ppm (Adult Stablefly; [1]) [%] | mortality at 5 ppm (Adult Stablefly; [2]) [%] | inhibition at 200 ppm (Rootknot Nematode) [%] | inhibition at 400 ppm (Rootknot Nematode) [%] | inhibition at 200 ppm (German Cockroach; 168 h, 7 day) [%] | inhibition at 400 ppm (German Cockroach; 168 h, 7 day) [%] | inhibition at 200 ppm (German Cockroach; 504 h, 21 day) [%] | inhibition at 400 ppm (German Cockroach; 504 h, 21 day) [%] | inhibition at 200 ppm (Two-spotted Spider Mite) [%] | inhibition at 400 ppm (Two-spotted Spider Mite) [%] | inhibition at 200 ppm (Cotton Aphid) [%] | inhibition at 400 ppm (Cotton Aphid) [%] | inhibition at 200 ppm (Tobacco Budworm) [%] | inhibition at 400 ppm (Tobacco Budworm) [%] | LC50 (Neonate Tobacco Budworm) [µg/mL] | inhibition at 200 ppm (Aster Leafhopper) [%] | further results
CCC1CCCC(OC2CCC(N(C)C)C(C)O2)C(C)C(=O)C2=CC3C(C=C(C)C4CC(OC5OC(C)C(OC)C(O)C5OC)CC43)C2CC(=O)O1 (stereo not shown) [Compound A83543L] | 0 | 0 | 100 | 100 | 70 | 100 | 0 | 0 | 40 | 0 | 100 | 100 | 0 | 0 | 0 | 0 | 100 | 100 | 26 (≈ 35.5 µM) | 100 | % mortality (Blowfly Larvae): 90%; inhibition at 400 ppm (Aster Leafhopper): 100%
CCC1CCCC(OC2CCC(NC)C(C)O2)C(C)C(=O)C2=CC3C(C=CC4CC(OC5OC(C)C(OC)C(O)C5OC)CC43)C2CC(=O)O1 (stereo not shown) [Compound A83543M] | 0 | 0 | 0 | 0 | 60 | 100 | 0 | 0 | 0 | 0 | 20 | 40 | 0 | 0 | 0 | 0 | 70 | 100 | 22.6 (≈ 32.1 µM) | 60 | inhibition at 400 ppm (Aster Leafhopper): 100%
CCC1CCCC(OC2CCC(NC)C(C)O2)C(C)C(=O)C2=CC3C(C=C(C)C4CC(OC5OC(C)C(OC)C(O)C5OC)CC43)C2CC(=O)O1 (stereo not shown) [Compound A83543N] | 0 | 0 | 90 | 100 | 20 | 90 | 0 | 0 | 0 | 0 | 0 | 0 | 0 | 0 | 0 | 0 | 100 | 100 | 40 (≈ 55.7 µM) | 100 | inhibition at 400 ppm (Aster Leafhopper): 100%
